Experimental data reported in DBAASP.
≈ marks a conversion by molar mass, not a printed value.

What was measured:
Test in all cases: ≥ marks a high value that may be exact or a test limit, other limits are often not marked, values filed in µg/mL are converted to µM
Bacillus subtilis DELTA = tested on: Bacillus subtilis DELTA
Candida parapsilosis = tested on: Candida parapsilosis
[1] = tested on: Escherichia coli DH5alpha
[2] = tested on: Pseudomonas aeruginosa PAO1
[3] = tested on: Zymomonas mobilis ATCC 10988
[4] = tested on: Clavibacter michiganensis subsp. michiganensis DSM 46294
[5] = tested on: Pectobacterium carotovorum subsp. carotovorum DSM 30168
[6] = tested on: Pseudomonas corrugata DSM 7228
[7] = tested on: Pseudomonas syringae pv. syringae DSM 10604
[8] = tested on: Pseudomonas syringae pv. tomato DC3000
[9] = tested on: Staphylococcus aureus 90857
[10] = tested on: Xanthomonas vesicatoria DSM 50861
[11] = tested on: Escherichia coli ATCC 25922
[12] = tested on: Klebsiella pneumoniae ATCC 700603
[13] = tested on: Pseudomonas aeruginosa ATCC 27853
[14] = tested on: Staphylococcus aureus ATCC 29213
[15] = tested on: Staphylococcus aureus ATCC 33591
[16] = tested on: Staphylococcus aureus ATCC 700699
Escherichia coli W160-37 = tested on: Escherichia coli W160-37
Staphylococcus aureus = tested on: Staphylococcus aureus
[17] = tested on: Corynebacterium glutamicum ATCC 13032
Escherichia coli HB101 = tested on: Escherichia coli HB101
[18] = tested on: Staphylococcus aureus ATCC 9144
[19] = tested on: Escherichia coli KCTC 2223
[20] = tested on: Micrococcus luteus ATCC 10240
[21] = tested on: Staphylococcus aureus ATCC 15752
Bacillus cereus AS1.126 = tested on: Bacillus cereus AS1.126
[22] = tested on: Enterobacter cloacae CGMCC 1.58
[23] = tested on: Enterococcus faecalis CGMCC 1.595
[24] = tested on: Enterococcus faecium CGMCC 1.2334
Escherichia coli AS1.349 = tested on: Escherichia coli AS1.349
[25] = tested on: Klebsiella pneumoniae subsp. pneumoniae CGMCC 1.176
[26] = tested on: Proteus mirabilis CICC 22931
[27] = tested on: Pseudomonas aeruginosa CGMCC 1.860
[28] = tested on: Staphylococcus aureus AS1.72
[29] = tested on: Staphylococcus epidermidis CICC 23664

Question: What does the source list for `CC[C@H](C)[C@H](NC(=O)[C@H](CCCCN)NC(=O)[C@H](CCCCN)NC(=O)[C@H](CC(C)C)NC(=O)CN)C(=O)N[C@H](C(=O)N[C@@H](CCCCN)C(=O)N[C@@H](CCCCN)C(=O)N[C@@H](CC(C)C)C(=O)N[C@@H](CC(C)C)C(N)=O)[C@@H](C)CC` [GLKKIIKKLL]?
Answer: MIC (Bacillus subtilis DELTA): 13 µM (≈ 15 µg/mL); MIC (Candida parapsilosis): 17.3 µM (≈ 20 µg/mL); MIC [1]: ≥ 173 µM; MIC [2]: 13 µM (≈ 15 µg/mL); MIC [3]: 17.3 µM (≈ 20 µg/mL)

Question: Which results are given for `CC(C)C[C@H](NC(=O)[C@H](CCCCN)NC(=O)[C@H](CCCCN)NC(=O)[C@H](CCCCN)NC(=O)[C@@H](N)CCCN=C(N)N)C(=O)N[C@@H](CCCCN)C(=O)N[C@H](C(=O)N[C@H](C(=O)N[C@@H](CCCCN)C(=O)N[C@@H](CCCN=C(N)N)C(=O)N[C@@H](CC(C)C)C(=O)N[C@H](C(N)=O)C(C)C)C(C)C)C(C)C` [RKKKLKVVKRLV]?
Answer: MIC [4]: 6.69 µM (≈ 9.99 µg/mL); MIC [5]: 6.69 µM (≈ 9.99 µg/mL); MIC [6]: 6.69 µM (≈ 9.99 µg/mL); MIC [7]: 3.34 µM (≈ 5 µg/mL); MIC [8]: 0.669 µM (≈ 0.999 µg/mL); MIC [9]: ≥ 62.5 µM; MIC [10]: 6.69 µM (≈ 9.99 µg/mL)

Question: Which MIC [11] does the source give for `CC[C@H](C)[C@H](NC(=O)[C@H](CC(=O)O)NC(=O)[C@H](CCCCN)NC(=O)[C@H](C)NC(=O)[C@H](C)NC(=O)CNC(=O)[C@H](C)NC(=O)[C@H](CC(C)C)NC(=O)[C@@H](NC(=O)[C@H](CC(=O)O)NC(=O)[C@@H](NC(=O)[C@@H](NC(=O)CN)C(C)C)C(C)C)[C@@H](C)CC)C(=O)N[C@@H](C)C(=O)NCC(=O)N[C@@H](Cc1cnc[nH]1)C(=O)N[C@@H](CC(C)C)C(=O)N[C@@H](C)C(=O)N[C@@H](CO)C(=O)N[C@@H](CCCCN)C(=O)N[C@H](C(=O)N[C@@H](CCSC)C(=O)N[C@@H](CC(N)=O)C(=O)N[C@@H](CCCCN)C(=O)N[C@@H](CC(C)C)C(N)=O)C(C)C` [GVVDILAGAAKDIAGHLASKVMNKL] here?
Answer: > 100 µM

Question: What about the MIC [12] of the same molecule?
Answer: > 100 µM

Question: And the MIC [13]?
Answer: > 100 µM

Question: What about the MIC [14] of the same molecule?
Answer: > 100 µM

Question: And the MIC [15]?
Answer: ≥ 100 µM

Question: What about the MIC [16] of the same molecule?
Answer: ≥ 100 µM

Question: Which results are given for `CC[C@H](C)[C@H](NC(=O)[C@H](Cc1c[nH]c2ccccc12)NC(=O)[C@H](CCCCN)NC(=O)[C@H](CO)NC(=O)[C@H](CC(C)C)NC(=O)[C@H](Cc1ccccc1)NC(=O)[C@H](CCCCN)NC(=O)[C@H](CC(C)C)NC(=O)[C@H](CCCCN)NC(=O)[C@@H]1CCCN1)C(=O)NCC(=O)O` [PKLKFLSKWIG]?
Answer: MIC (Escherichia coli W160-37): ≥ 154 µM; MIC (Staphylococcus aureus): 154 µM (≈ 203 µg/mL)

Question: For `CC[C@H](C)[C@H](NC(=O)[C@@H]1CCCN1C(=O)[C@H](CCCCN)NC(=O)[C@@H]1CCCN1C(=O)[C@H](CCCN=C(N)N)NC(=O)CNC(=O)[C@@H]1CCCN1C(=O)[C@H](Cc1ccccc1)NC(=O)[C@@H]1CCCN1C(=O)[C@H](CCCN=C(N)N)NC(=O)[C@@H]1CCCN1)C(=O)N[C@@H](Cc1ccccc1)C(=O)N[C@@H](CCCN=C(N)N)C(=O)N1CCC[C@H]1C(=O)N[C@@H](CCCN=C(N)N)C(=O)O` [PRPFPGRPKPIFRPR], which MIC [17] is on record?
Answer: 12.5 µM (≈ 22.7 µg/mL)

Question: And the MIC [11]?
Answer: > 100 µM

Question: And the MIC (Escherichia coli HB101)?
Answer: ≥ 100 µM

Question: And the MIC [13]?
Answer: > 100 µM

Question: What about the MIC [18] of the same molecule?
Answer: ≥ 100 µM

Question: What does the source list for `CC[C@H](C)[C@H](NC(=O)[C@H](CCCCN)NC(=O)[C@@H](NC(=O)[C@@H](N)CC(N)=O)[C@@H](C)CC)C(=O)N[C@@H](CO)C(=O)NCC(=O)N[C@@H](CCCCN)C(=O)N[C@@H](Cc1c[nH]c2ccccc12)C(=O)N[C@@H](CCCCN)C(=O)N[C@@H](C)C(=O)N[C@@H](CCC(N)=O)C(=O)N[C@@H](CCCCN)C(=O)N[C@@H](CCCN=C(N)N)C(=O)N[C@@H](Cc1ccccc1)C(=O)N[C@@H](CC(C)C)C(=O)N[C@@H](CCCCN)C(=O)O` [NIKISGKWKAQKRFLK]?
Answer: MIC [19]: ≥ 32 µM; MIC [20]: ≥ 32 µM; MIC [21]: ≥ 32 µM

Question: What does the source list for `CC[C@H](C)[C@H](NC(=O)[C@H](CC(C)C)NC(=O)[C@H](CCCCN)NC(=O)[C@H](CCCCN)NC(=O)[C@H](CC(C)C)NC(=O)[C@@H](NC(=O)[C@H](CCCCN)NC(=O)[C@H](CCCCN)NC(=O)[C@@H](NC(=O)[C@H](Cc1ccccc1)NC(=O)[C@H](CCCN=C(N)N)NC(=O)[C@@H](N)CC(C)C)[C@@H](C)CC)[C@@H](C)CC)C(N)=O` [LRFIKKILKKLI]?
Answer: MIC [4]: 0.165 µM (≈ 0.25 µg/mL); MIC [5]: 1.65 µM (≈ 2.5 µg/mL); MIC [6]: 1.65 µM (≈ 2.5 µg/mL); MIC [7]: 0.165 µM (≈ 0.25 µg/mL); MIC [8]: 0.661 µM (≈ 0.999 µg/mL); MIC [9]: 0.625 µM (≈ 0.945 µg/mL); MIC [10]: 0.0661 µM (≈ 0.0999 µg/mL)

Question: How did the MIC [17] turn out when `CC[C@H](C)[C@H](NC(=O)[C@@H]1CCCN1C(=O)[C@H](CCCCN)NC(=O)[C@@H]1CCCN1C(=O)[C@H](CCCN=C(N)N)NC(=O)CNC(=O)[C@@H]1CCCN1C(=O)[C@H](Cc1ccccc1)NC(=O)[C@@H]1CCCN1C(=O)[C@H](CCCN=C(N)N)NC(=O)[C@@H]1CCCN1C(=O)[C@H](CCCN=C(N)N)NC(=O)CN)C(=O)N[C@@H](Cc1ccccc1)C(=O)N[C@@H](CCCN=C(N)N)C(=O)N1CCC[C@H]1C(=O)N[C@@H](CCCN=C(N)N)C(=O)O` [GRPRPFPGRPKPIFRPR] was run?
Answer: 3.1 µM (≈ 6.3 µg/mL)

Question: What about the MIC [11] of the same molecule?
Answer: 70.7 µM (≈ 144 µg/mL)

Question: And the MIC (Escherichia coli HB101)?
Answer: 25 µM (≈ 50.8 µg/mL)

Question: And the MIC [13]?
Answer: 70.7 µM (≈ 144 µg/mL)

Question: And the MIC [18]?
Answer: ≥ 100 µM

Question: For `CC[C@H](C)[C@H](NC(=O)[C@H](CC(=O)O)NC(=O)[C@H](CCCCN)NC(=O)[C@H](C)NC(=O)[C@H](C)NC(=O)CNC(=O)[C@H](CCCCN)NC(=O)[C@H](CC(C)C)NC(=O)[C@@H](NC(=O)[C@H](CC(=O)O)NC(=O)[C@@H](NC(=O)[C@@H](NC(=O)CN)C(C)C)C(C)C)[C@@H](C)CC)C(=O)N[C@@H](C)C(=O)NCC(=O)N[C@@H](Cc1cnc[nH]1)C(=O)N[C@@H](CC(C)C)C(=O)N[C@@H](C)C(=O)N[C@@H](CO)C(=O)N[C@@H](C)C(=O)N[C@H](C(=O)N[C@@H](CCSC)C(=O)N[C@@H](CC(N)=O)C(=O)N[C@@H](CCCCN)C(=O)N[C@@H](CC(C)C)C(N)=O)C(C)C` [GVVDILKGAAKDIAGHLASAVMNKL], which MIC [11] is on record?
Answer: 100 µM (≈ 249 µg/mL)

Question: And the MIC [12]?
Answer: > 100 µM

Question: And the MIC [13]?
Answer: > 100 µM

Question: And the MIC [14]?
Answer: > 100 µM

Question: What about the MIC [15] of the same molecule?
Answer: ≥ 100 µM

Question: And the MIC [16]?
Answer: ≥ 100 µM

Question: Which results are given for `CC[C@H](C)[C@H](N)C(=O)N[C@@H](CCCCN)C(=O)N[C@@H](CCCCN)C(=O)N[C@H](C(=O)N[C@@H](Cc1c[nH]c2ccccc12)C(=O)N[C@@H](CO)C(=O)N[C@@H](CCCCN)C(=O)N[C@H](C(=O)N[C@@H](CCCCN)C(=O)N[C@@H](CCCCN)C(=O)N[C@@H](Cc1c[nH]c2ccccc12)C(=O)N[C@@H](Cc1c[nH]c2ccccc12)C(=O)N[C@@H](CCCCN)C(=O)O)[C@@H](C)CC)[C@@H](C)CC` [IKKIWSKIKKWWK]?
Answer: MIC (Bacillus cereus AS1.126): 6.25 µM (≈ 11.1 µg/mL); MIC [22]: ≥ 100 µM; MIC [23]: 5 µM (≈ 8.86 µg/mL); MIC [24]: 12.5 µM (≈ 22.2 µg/mL); MIC (Escherichia coli AS1.349): 2.5 µM (≈ 4.43 µg/mL); MIC [25]: ≥ 100 µM; MIC [26]: ≥ 100 µM; MIC [27]: 4.69 µM (≈ 8.31 µg/mL); MIC [28]: 2.5 µM (≈ 4.43 µg/mL); MIC [29]: 2.5 µM (≈ 4.43 µg/mL)
